Laboratory results published in patent US7867979B2, “Drug composition for treating 2 type diabetes and diabetic chronicity complications” (Hainan Deze Drug Research Co., Ltd., priority 2006, dated 2011).

Experiments:
Format in all cases: in vivo, Goto-Kakizaki rats (GK)
aldose reductase (AR) = molecular target: T1, aldose reductase (AR) (Rattus norvegicus, UniProt P07943); test: Activity of aldose reductase (AR) of lens in GK rats; conditions: different ratio experiment, oral daily 12 weeks, specific activity, in U/mg protein; for AR activity of lens NADH (0.1 mmol/L): total 20 mg/kg per Table 3, NADH 0.1 mmol/L system; for AR activity of lens NADPH (0.1 mmol/L): total 20 mg/kg per Table 3, NADPH 0.1 mmol/L system
T1 construct: from tissue; host or cells: lens of GK (Goto-Kakizaki) and Wistar rats
Protocol: GK rats control group (n=10); mangiferin groups (10, 30, 200 mg/kg, each group 10 rats); berberine groups (10, 20, 150 mg/kg, each group 10 rats); composition group 1[[mangiferin (10 mg/kg)+berberine (10 mg/kg)], 10 rats]; composition group 2[[mangiferin (200 mg/kg)+berberine (150 mg/kg)], 10 rats]. Wistar rats are normal control group (10 rats). GK rats control group and Wistar rats group were given saline. The other groups were given test drugs. Test samples were administrated orally at the same time every day for 12 weeks. […] At the End of the experiment, the left side lens of rats was taken, then these lenses were added into glycerol and put into refrigerator (−80° C.□) to preserve to determine AR activity. The determination method of AR activity refer to Maragoudakis's method and change slightly, that is: the activity of enzyme is indicated by the record of the absorbance of NADPH in 340 nm decline IOU. […] The second reaction system is 0.1 mmol/L NADH instead of NADPH, the rest of the reagent is same as one of the first response system. The activity of enzyme and the protein content in tissue homogenate are determined at the same time. a unit enzyme activity is indicated by the quantity of the enzyme that produce 1 μmol NADP^+ (or NDA^+) in one minute. […] The results have been calculated as mean±SD ( x±SD) and the comparisons of the data have been done by t-test. There are ten rats in every group. GK rats control group and wistar rats group were given saline. The other groups were given test drugs. Test samples were administrated orally at the same time every day for 12 weeks. The measurements are as same as the above experiment.

Propyl dialdehyde (MDA) = Propyl dialdehyde (MDA) in kidney tissue homogenate of GK rats; conditions: different ratio experiment, oral daily 12 weeks, total 20 mg/kg per Table 3
Protocol: (§1) GK rats control group (n=10); mangiferin groups (10, 30, 200 mg/kg, each group 10 rats); berberine groups (10, 20, 150 mg/kg, each group 10 rats); composition group 1[[mangiferin (10 mg/kg)+berberine (10 mg/kg)], 10 rats]; composition group 2[[mangiferin (200 mg/kg)+berberine (150 mg/kg)], 10 rats]. Wistar rats are normal control group (10 rats). GK rats control group and Wistar rats group were given saline. The other groups were given test drugs. Test samples were administrated orally at the same time every day for 12 weeks. 3.3.1 Preparation of tissue homogenate: Rats were killed by femoral artery bloodletting after administration of the rats for 12-weeks. Kidney tissue of the rats were taken, the blood of kidney tissue were washed with cooling saline (4° C.), then the remnant water was absorbed with filter paper, the kidney tissue was weighed. Per gram kidney tissue was added into 10 ml saline, which was put in homogenized machine (10,000 r/min, 10 seconds, 3rd), 10% tissue homogenate was prepared, the tissue homogenate was centrifuged (4000 r/min) for 10 minutes to get supernatant, the supernatant was saved in −20° C. for determination. 3.3.2.2 Propyl dialdehyde (MDA): MDA is determined by TBA, the test box was bought from Nanjing Jiancheng Bioengineering Research Institute. […] The results have been calculated as mean±SD ( x±SD) and the comparisons of the data have been done by t-test. There are ten rats in every group. GK rats control group and wistar rats group were given saline. The other groups were given test drugs. Test samples were administrated orally at the same time every day for 12 weeks. The measurements are as same as the above experiment.

[1] = test system: Superoxidedismutase (SOD); test: Superoxidedismutase (SOD) in kidney tissue homogenate of GK rats; conditions: different ratio experiment, oral daily 12 weeks, total 20 mg/kg per Table 3
Protocol: as §1, with “[…] SOD” for “3.3.2.2 Propyl dialdehyde (MDA): MDA”, “Xanthine Oxidase calorimetric analysis,” for “TBA,”

diabetic GK rats = test: Blood glucose and lipid in GK rats; conditions: different ratio experiment; GK rats, high fat diet, oral daily 12 weeks, total 20 mg/kg per Table 3
Description: The GK (Goto-Kakizaki) rat is the spontaneous model of diabetes, the pathogenesis of GK rat is very similar to the pathogenesis of type 2 diabetes. After diabetes attack, hyperglycemia and insulin secretion weakened emerge rapidly, the latter diseases may be complicated by retinopathy, micro-vascular disease, neuropathy, nephropathy in GK rat. The GK rats have been widely used in type 2 diabetes study, so we choose GK rat as the animal model of the following experiment. […] Then they can be mixed or diluted in accordance with the dose and the ratio. 1.3 Goto-Kakizaki rats (GK) (4 months age, ♀♂) and Wistar rats (SPF level, ♀♂) were purchased from Shanghai SLAC laboratory animal Co., Ltd. In addition to the normal rats, the other rats were fed with high fat diet (20% protein and 3.5% cholesterol). After the rats was feeding adaptation for one week, The GK rats which the blood glucose level was more than 11.1 mmol/L were selected, and then divided into the following groups random: GK rats control group (n=10); mangiferin groups (10, 30, 200 mg/kg, each group 10 rats); berberine groups (10, 20, 150 mg/kg, each group 10 rats); composition group 1[[mangiferin (10 mg/kg)+berberine (10 mg/kg)], 10 rats]; composition group 2[[mangiferin (200 mg/kg)+berberine (150 mg/kg)], 10 rats]. Wistar rats are normal control group (10 rats). GK rats control group and Wistar rats group were given saline. The other groups were given test drugs. Test samples were administrated orally at the same time every day for 12 weeks. 3.1 Blood Glucose and lipid: The blood specimens were taken at the end of the test. Plasma glucose (GLU), triglycerides (TG), total cholesterol (TC) were determined by HITACHI7080 automatic biochemistry analyzer. […] The results have been calculated as mean±SD ( x±SD) and the comparisons of the data have been done by t-test. […] Mangiferin and berberine are prepared in accordance with the method of preparation of example 1 and 2. Then they can be mixed in accordance with the dose and the ratio such as table 3. 1.2 Animal: Goto-Kakizaki rats (GK) (4 months age, ♀♂) and Wistar rats (SPF level, ♀♂) were purchased from Shanghai SLAC laboratory animal Co., Ltd. In addition to the normal rats, the other rats were fed with high fat diet (20% protein and 3.5% cholesterol). After the rats was feeding adaptation for one week, GK rats that the blood glucose level of the GK rats was more than 11.1 mmol/L were selected, and then random divided into the following groups as follows (Table 3): There are ten rats in every group. GK rats control group and wistar rats group were given saline. The other groups were given test drugs. Test samples were administrated orally at the same time every day for 12 weeks. The measurements are as same as the above experiment.

| AR activity of lens NADH (0.1 mmol/L) (aldose reductase (AR)) | AR activity of lens NADPH (0.1 mmol/L) (aldose reductase (AR)) | SMILES | Measurements about oxidation MDA (Propyl dialdehyde (MDA)) [nmol/mg pro] | Measurements about oxidation SOD [1] [U/mg pro] | GLU (diabetic GK rats) [mmol/L] | Lipid TC (diabetic GK rats) [mmol/L] | Lipid TG (diabetic GK rats) [mmol/L] |
| --- | --- | --- | --- | --- | --- | --- | --- |
| 1.97 ± 0.46 | 3.11 ± 0.56 | O=c1c2cc(O)c(O)cc2oc2cc(O)c(C3OC(CO)C(O)C(O)C3O)c(O)c12 (centres unmarked) [Composition A] | 3.43 ± 0.89 | 168.26 ± 13.50 | 14.11 ± 2.03 | 3.26 ± 0.26 | 2.79 ± 0.30 |
| 1.39 ± 0.53 | 2.48 ± 0.58 | COc1ccc2cc3[n+](cc2c1OC)CCc1cc2c(cc1-3)OCO2 [Composition H] | 3.52 ± 0.77 | 171.10 ± 13.81 | 12.34 ± 2.09 | 3.33 ± 0.26 | 2.91 ± 0.09 |
